In patent US9850241B2, “Azaindole acetic acid derivatives and their use as prostaglandin D2 receptor modulators” (IDORSIA PHARMACEUTICALS LTD, priority 2014, dated 2017):

Legend:
hCRTH2 receptor [1] = target: T1, hCRTH2 receptor (Homo sapiens, UniProt Q9Y5Y4); assay: hCRTH2 receptor membranes radioligand displacement assay (3H-PGD2); type: binding; settings: HEK293-hCRTH2 membranes, 3H-PGD2 2.5 nM, 0.1% BSA
T1 construct: expressed in transfected cells; host or cells: HEK293 (recombinant HEK293-hCRTH2), membrane fragments
T1 sequence (Q9Y5Y4 1-395): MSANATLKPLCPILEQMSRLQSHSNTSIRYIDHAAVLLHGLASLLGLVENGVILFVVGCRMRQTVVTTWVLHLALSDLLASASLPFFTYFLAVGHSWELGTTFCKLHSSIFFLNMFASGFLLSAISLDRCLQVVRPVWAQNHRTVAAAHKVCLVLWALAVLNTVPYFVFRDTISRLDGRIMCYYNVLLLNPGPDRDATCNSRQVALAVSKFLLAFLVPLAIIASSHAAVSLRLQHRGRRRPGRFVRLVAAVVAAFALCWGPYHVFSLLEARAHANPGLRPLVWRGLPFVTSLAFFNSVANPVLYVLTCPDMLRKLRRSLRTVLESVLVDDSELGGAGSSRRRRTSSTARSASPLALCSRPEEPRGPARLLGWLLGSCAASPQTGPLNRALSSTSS
Procedure: Preparation of hCRTH2 Receptor Membranes and Radioligand Displacement Assay:
(§1) First, recombinant HEK293-hCRTH2 cells were detached from culture plates into 5 ml buffer A/plate (Buffer A: 5 mM Tris, 1 mM MgCl2-6H2O pH=7.4) using a rubber policeman. Cells were then transferred into centrifugation tubes and centrifuged for 5 min at 400 g. The cell pellet was resuspended in the same buffer and tubes were frozen at 80° C. Cells were thawed and membrane fragments were generated by homogenization using a polytron homogenizer (30 seconds). The membrane fragments were then centrifuged at 3000 g for 20 minutes and resuspended in buffer C (Buffer C: 75 mM Tris, 25 mM MgCl2, 250 mM Saccharose pH 7.4). Aliquots of membrane fragements were stored at −20° C.
Binding assay was performed in a final assay volume of 250 μl. First, 25 μl of test compound, previously diluted in Binding-Buffer (Binding-Buffer: 50 mM Tris-Base, 100 mM NaCl, 1 mM EDTA, 0.1% BSA (protease free), 0.01% NaN3, 10 mM MnCl2 pH 7.0) was placed into each well. After addition of 75 μl Binding-Buffer, 50 μl of the radioligand ^3H-PGD2 (at 2.5 nM (220.000 dpm/well) from ANAWA ART0662) was added to each well. Binding assay was started by addition of 100 μl CRTH2 membrane fragments, reaching a final concentration of 20 μg/well. For non-specific binding, PGD2 was added to the reaction mixture to […] final concentration. This assay mix was incubated for 90 minutes at room temperature and then filtered through a GF/C filter 96-well plate which was pre-soaked for 3 hours in 0.5% polyethyleneimine (PEI). The filter-wells were washed three times with ice cold Binding-Buffer. Then, 40 μl of Microscint-40 (Packard) was added to each well and the retained radioactivity quantified in a Topcount (Packard).

[2] = system: primary cultured rat hepatocytes; assay: In vitro cytotoxicity in primary cultured rat hepatocytes; type: cell-based; settings: 24 h treatment, cell morphology and LDH leakage, highest concentration 300 μM; for LCC (lowest cytotoxic concentration): "300 s" = only slight cytotoxicity at the highest test concentration
Description: In Vitro Cytotoxicity in Primary Cultured Rat Hepatocytes
Adult male Wistar rats were narcotized with sodium pentobarbital and hepatocytes were isolated according to a standard procedure, i.e. by in situ perfusion of the liver with a collagenase solution. The viability of the purified hepatocytes, checked by the trypan blue dye exclusion method was greater than 85%. The isolated hepatocytes were resuspended in standard Williams Medium E, without phenol red, supplemented (WME supp.) with transferrin (100 μg/ml), triiodothyronine (10 μg/ml), gentamicin (50 μg/ml), hydrocortison hemisuccinate (13.36 μg/ml), glucagon (5 μg/ml), HEPES (10 mM), inosin (10 μ/ml), insulin (10 μg/ml), streptomycin (100 μg/ml) and penicillin (100 U/ml) and 10% fetal bovine serum (FBS). The cells were plated in collagen-coated 24-well plates at an initial density of 2×10^5 cells/well. After 4 h for attachment to the culture-plates, the medium was aspirated and replaced by fresh WME supp. without FBS containing the test compounds and incubated for 24 h at 37° C. in a […] and 5% CO2 atmosphere. For each experiment, i.e., with each batch of hepatocytes, treatments with the test compounds were done in quadriplicate. Quadriplicate controls (treatment with the vehicle only) were also present on each culture plate.
Stock solutions of the test compounds were prepared in DMSO a few hours before treatment start. Appropriate dilutions of these stock solutions were added to the culture media just prior to the treatment in order to give final concentrations of 0, 3, 10, 30, 100 and 300 μM. The final concentration of the vehicle DMSO was 1% (v/v).
The morphology of the hepatocyte monolayers was monitored by light microscopy after 24 hours of exposure to the test compounds. Treatment related effects are described according to the following grading: • 0 No morphological alterations observed upon treatment when compared to the control cultures • 1-3 Treatment resulting in any morphological changes, e.g. intracellular granulation, vacuolization or cell death. Depending on the severity, these changes were regarded as slight (1), moderate (2) or strong (3). • K Treatment resulting in 100% dead cells and/or the complete detachment of the monolayer yielding a clear cell-free dish.
After 24 h treatment of the hepatocyte cultures, aliquots of culture medium were carefully collected and used for the analysis of lactate dehydrogenase (LDH) activity by spectrophotometry using the LDH cytotoxicity detection kit from Clontech (cat No. 630117, Mountain View, Calif., USA). For each experiment, additional cultures were used for the determination of total intracellular LDH activity at treatment start. For this purpose, 4 wells of cell culture per experiment were washed with cold saline before treatment start, sonicated in fresh medium and the homogenate was analyzed for total LDH activity. Enzyme activities in the culture media were assessed and expressed as percentage of the total activity present in the cultured hepatocytes at the beginning of the treatments.
The lowest cytotoxic concentration (LCC) and the no effect concentration (NoEC) are given for each compound, based on cell morphology and LDH leakage after 24 h treatment. LCC is defined as the lowest concentration of the test compound leading to a clear effect on the cultured rat hepatocytes (morphology grading 2 or 2-fold increase in LDH leakage). A LCC value of >300 μM indicates the absence of effect on both endpoints at the highest test concentration of 300 μM. […] NoEC is defined as the highest test concentration of the compound which was without an effect on the cultured rat hepatocytes (morphology and LDH leakage). • 3 . Results

hCRTH2 receptor [3] = target: T1, hCRTH2 receptor; assay: Radioligand displacement assay in presence of human serum albumin (HSA); settings: Binding buffer with 0.5% HSA instead of 0.1% BSA, 3H-PGD2 2.5 nM
Procedure: as §1
Binding assay was performed in a final assay volume of 250 μl. […] After addition of 75 μl Binding-Buffer, 50 μl of the radioligand ^3H-PGD2 (at 2.5 nM (220.000 dpm/well) from ANAWA ART0662) was added to each well. Binding assay was started by addition of 100 μl CRTH2 membrane fragments, reaching a final concentration of 20 μg/well. For non-specific binding, PGD2 was added to the reaction mixture to […] final concentration. […] Then, 40 μl of Microscint-40 (Packard) was added to each well and the retained radioactivity quantified in a Topcount (Packard). […]

[4] = system: eosinophils activated by PGD2; assay: Eosinophil shape change assay with human plasma; type: cell-based; settings: 50% human plasma, PGD2 100 nM, shape change by forward-scatter
Procedure: Eosinophil Shape Change Assay with human Plasma
After obtaining informed consent, blood samples were drawn by venipuncture according to the protocol approved by the ethics committee of Basel, Switzerland. Polymorphonuclear leukocytes (containing eosinophils, basophils and neutrophils) were isolated using the Polymorphprep™ method (Axis-Shield). In brief, anticoagulated whole blood was layered onto a Polymorphprep gradient (density 1.113 g/ml) and centrifuged at 500 g for 30 min. The polymorphonuclear cell fraction was harvested and depleted for erythrocytes by hypotonic saline lysis. […]
Immediately after fixation with paraformaldehyde, the samples were analyzed by FACSCanto flow cytometer (BD Biosciences) and target cells were identified by their forward-scatter (FSC) and side-scatter (SSC) characteristics. […] Shape change responses, indicative of eosinophil activation, were quantified as the percent of cells with an increased forward-scatter.

Structure (SMILES): CN(c1nc2cc(F)ccc2o1)C1CCc2c(c3ncccc3n2CC(=O)O)C1 (stereo not shown) [Example 3, 2-(8-((5-fluorobenzo[d]oxazol-2-yl)(methyl)amino)-6,7,8,9-tetrahydro-5H-pyrido[3,2-b]indol-5-yl)acetic acid]
- IC50 (hCRTH2 receptor [1]): 31 nM

Structure (SMILES): CN(c1nc2ccc(Cl)cc2o1)[C@H]1CCc2c(c3cc(F)ccc3n2CC(=O)O)C1
- NoEC (no effect concentration) [2]: 30 µM
- LCC (lowest cytotoxic concentration) [2]: 100^ μM

Structure (SMILES): CN(c1nc2cc(F)ccc2o1)C1CCc2c(c3ncccc3n2CC(=O)O)C1 (stereo not shown) [drawing 13]
- NoEC (no effect concentration) [2]: 100 µM
- LCC (lowest cytotoxic concentration) [2]: 300 s

Structure (SMILES): CN(c1nc2cc(Cl)ccc2o1)C1CCc2c(c3ncccc3n2CC(=O)O)C1 (stereo not shown) [drawing 12]
- NoEC (no effect concentration) [2]: 100 µM
- LCC (lowest cytotoxic concentration) [2]: 300 s

Structure (SMILES): CN(c1nc2ccc(Cl)cc2o1)C1CCc2c(c3ncccc3n2CC(=O)O)C1 (stereo not shown) [Example 1, 2-(8-((6-chlorobenzo[d]oxazol-2-yl)(methyl)amino)-6,7,8,9-tetrahydro-5H-pyrido[3,2-b]indol-5-yl)acetic acid]
- IC50 (hCRTH2 receptor [1]): 11 nM
- IC50 (hCRTH2 receptor [3]): 31 nM
- IC50 [4]: 27 nM

Structure (SMILES): CN(c1nc2cc(Cl)ccc2o1)C1CCc2c(c3ncccc3n2CC(=O)O)C1 (stereo not shown) [Example 2, 2-(8-((5-chlorobenzo[d]oxazol-2-yl)(methyl)amino)-6,7,8,9-tetrahydro-5H-pyrido[3,2-b]indol-5-yl)acetic acid]
- IC50 (hCRTH2 receptor [1]): 35 nM

Structure (SMILES): CN(c1nc2ccc(Cl)cc2o1)C1CCc2c(c3ncccc3n2CC(=O)O)C1 (stereo not shown) [drawing 11]
- NoEC (no effect concentration) [2]: >300 µM
- LCC (lowest cytotoxic concentration) [2]: >300^ μM
